# Experimental data as given in patent US20220096484A1, “METHODS AND COMPOSITIONS FOR TREATING CANCER BY TARGETING FATP2 AND MYELOID DERIVED SUPPRESSOR CELLS” (The Wistar Institute of Anatomy and Biology, priority 2019, published 2022).
# Key:
# [1] = test system: tumor-associated antigen (E7-derived peptide)-specific CD8+ T cells; assay: Antigen specific CD8 T cells in draining lymph nodes of TC-1 tumor-bearing mice (MHC tetramer flow cytometry); type: in vivo, mouse; settings: TC-1 model; lipofermata treatment
# Protocol: FIGS. 13A-FIG. 13E show the effect of lipofermata treatment on tumor-bearing mice. FIG. 13A, MTT assay after three-day incubation of tumor cells with indicated concentration of lipofermata. FIG. 13B, Percentage and absolute number of tumor-associated antigen (E7-derived peptide)-specific CD8^+ T cells in draining lymph nodes of mice bearing TC-1 tumor and treated with lipofermata (n=3). FIG. 13C, Growth of TC-1 tumors in mice treated with CTLA4 antibody and lipofermata (n=5). FIG. 13D, CD8^+ T cell infiltration of TC-1 tumors in mice treated with CTLA4 antibody and lipofermata. FIG. 13E, Growth of TC-1 tumors in mice treated with PD1 antibody and lipofermata (n=5). […]
# Lymph nodes (LNs) were obtained from TB mice and digested for 30 min at 37° C. with collagenase A (0.5 mg/ml; Sigma Aldrich), Dnase I (0.2 mg/ml, Roche), diluted in HBSS with Ca^2+/Mg^2+ and 20 mM EDTA (Invitrogen) was added 5 min at room temperature to stop the reaction. CD8^+ T cells were isolated from LNs of TB mice using EasySep Mouse CD8+ T Cell Enrichment Kit (STEMCELL) and stimulated with anti CD3 and anti CD28 antibodies (BD Biosciences) for 24 h and IFNγ was analyzed by ELISpot (Mabtech), accordingly to manufacturer's instructions. T cell proliferation was evaluated by flow cytometry using CSFE (BioLegend). […]
# [2] = test system: LLC tumors in NOD-SCID mice; assay: Growth of LLC tumors in NOD-SCID mice treated with lipofermata; type: in vivo, mouse; settings: lipofermata 2 mg/kg twice per day s.c.
# Protocol: (§1) FIG. 4A-FIG. 4E, Treatments with lipofermata (2 mg kg^−1 twice per day subcutaneously) started 8-10 days after tumor injection. Anti-CTLA4 antibody (200 μg per mouse, intraperitoneally) was administrated at days 7 and 11 after tumor injection, and anti-CSF1R antibody ([…] per mouse, intraperitoneally) was administered every other day, starting the day after tumor injection. FIG. 4A, Growth of indicated tumors in C57BL/6 mice treated with lipofermata. Representative of two independent experiments (n=4-5 mice per group). FIG. 4B, Growth of LLC tumors in NOD-SCID mice treated with lipofermata (n=5). FIG. 4C, Growth of LLC tumors in mice depleted of CD8 T cells and treated with lipofermata (n=5). FIG. 4D, Growth of LLC tumors in mice treated with anti-CTLA4 antibody and lipofermata (n=5). FIG. 4E, Growth of LLC tumors in mice treated with CSF1R inhibitor and lipofermata (n=5). Data are mean±se.m. *P<0.05, **P<0.01, ***P<0.001, ****P<0.0001 (differences from untreated […] and between treated groups), two-way ANOVA with corrections for multiple comparison. NS, not significant.
# 5×10^5 tumor cells were injected s.c. into mice, which formed tumors with a 1.5-cm diameter within 2-3 weeks of injection. Lipofermata was administrated s.c. at dose of 2 mg/kg twice per day. As a control, mice were treated with vehicle alone (DMSO+30% v/v Kolliphor). […]
# [3] = test system: LLC tumors; assay: Growth of LLC tumors in mice (lipofermata alone, CD8 T cell depletion, combination with antibodies); type: in vivo, mouse
# Protocol: as §1
# 5×10^5 tumor cells were injected s.c. into mice, which formed tumors with a 1.5-cm diameter within 2-3 weeks of injection. Lipofermata was administrated s.c. at dose of 2 mg/kg twice per day. As a control, mice were treated with vehicle alone (DMSO+30% v/v Kolliphor). Treatments with lipofermata started 8-10 days after tumors injections. CSF1R antibody (BioXcell, 300 μg/mouse) was administered every other day starting next day after tumor injection and continued until the mice were sacrificed. PD-1 antibody (clone RMP1-14, BioXcell, 200 μg/mouse) was administered twice a week started 10-12 days after tumor injection. CTLA4-IgG2a (BioXcell, 200 μg/mouse) was administered at day 7 and day 11.
# (§2) Statistical analysis was performed using unpaired two-tailed Student's t-test with significance determined at 0.05. […] Tumor growth was evaluated using two-way Anova test with Bonferroni correction for multiple comparisons.
# [4] = test system: LLC tumor cells; assay: MTT assay after three-day incubation of tumor cells with lipofermata; type: cell-based; settings: range of concentrations corresponding to the dose used in vivo (0.2 mg/ml)
# Protocol: (§3) FIGS. 13A-FIG. 13E show the effect of lipofermata treatment on tumor-bearing mice. FIG. 13A, MTT assay after three-day incubation of tumor cells with indicated concentration of lipofermata. FIG. 13B, Percentage and absolute number of tumor-associated antigen (E7-derived peptide)-specific CD8^+ T cells in draining lymph nodes of mice bearing TC-1 tumor and treated with lipofermata (n=3). FIG. 13C, Growth of TC-1 tumors in mice treated with CTLA4 antibody and lipofermata (n=5). FIG. 13D, CD8^+ T cell infiltration of TC-1 tumors in mice treated with CTLA4 antibody and lipofermata. FIG. 13E, Growth of TC-1 tumors in mice treated with PD1 antibody and lipofermata (n=5). Data are mean±s.d. *P<0.05, **P<0.01, ***P<0.001, ****P<0.0001, two-sided Student's t-test (FIG. 13B) or two-way ANOVA test with correction for repeated measurements (FIG. 13E).
# (§4) Tumor cell lines: EL4 (lymphoma), LLC (Lewis Lung Carcinoma), CT26 (colon carcinoma), TC-1 (HPV16 E6/E7 expressing tumor cell line) were obtained from ATCC and F244 (sarcoma) was kindly provided by Dr. R. Schreiber (Washington University, St. Lois, Mo.). All cells were maintained in DMEM medium supplemented with 10% fetal bovine serum (FBS, Sigma-Aldrich, St. Louis, Mo.) at 37° C., 5% CO2. Tumor cells were injected subcutaneously (s.c.) at 5×10^5 cells per mouse. […]
# [5] = test system: EL-4 tumor cells; assay: as above; type: cell-based; settings: EL-4 cells, range of concentrations corresponding to the dose used in vivo (0.2 mg/ml)
# Protocol: as §3, §4
# [6] = test system: tumors in C57BL/6 mice; assay: Growth of tumors in C57BL/6 mice treated with lipofermata (four tumor models); type: in vivo, mouse; settings: four tested tumor models, lipofermata 2 mg/kg twice per day s.c., started 8-10 days after tumor injection
# Protocol: as §1, with “significant. […]” for “significant.”
# as §2
smiles,measurement,setting,value
"O=C1Nc2ccc(Br)cc2C12NN=C(c1ccccc1)S2 (stereo not drawn) [lipofermata, 5′-bromo-5-phenyl-spiro[3H-1,3,4-thiadiazole-2,3′-indoline]-2′-one]",absolute numbers of antigen specific T cells in draining lymph nodes,[1],increased
same,percentage of antigen specific T cells in draining lymph nodes,[1],increased
same,tumor growth delay effect in immune deficient mice,[2],this effect was absent
same,antitumor effect (LLC tumor growth),"[3]; LLC bearing mice, lipofermata 2 mg/kg twice per day s.c., anti-CTLA4 200 μg/mouse days 7 and 11, CSF1R antibody 300 μg/mouse every other day",had an antitumor effect
same,blocking of tumor progression,"[3]; LLC bearing mice, single agents",neither blocked tumor progression
same,tumor growth effect after depletion of CD8+ T cells,"[3]; LLC tumors, immune competent mice depleted of CD8 T cells, lipofermata 2 mg/kg twice per day s.c.",abrogated the effect of lipofermata
same,proliferation of tumor cells in vitro (MTT),[4],did not affect proliferation
same,proliferation of tumor cells in vitro (MTT),[5],did not affect proliferation
same,tumor growth,[6],significant delay of tumor growth
